The target of the experiment is T1, AM2 receptor (1321N1 cells transfected with CALCRL+RAMP3) (Homo sapiens, UniProt O60896+Q16602).
T1 construct: host or cells: 1321N1 cells
T1 sequence (Q16602 23-461): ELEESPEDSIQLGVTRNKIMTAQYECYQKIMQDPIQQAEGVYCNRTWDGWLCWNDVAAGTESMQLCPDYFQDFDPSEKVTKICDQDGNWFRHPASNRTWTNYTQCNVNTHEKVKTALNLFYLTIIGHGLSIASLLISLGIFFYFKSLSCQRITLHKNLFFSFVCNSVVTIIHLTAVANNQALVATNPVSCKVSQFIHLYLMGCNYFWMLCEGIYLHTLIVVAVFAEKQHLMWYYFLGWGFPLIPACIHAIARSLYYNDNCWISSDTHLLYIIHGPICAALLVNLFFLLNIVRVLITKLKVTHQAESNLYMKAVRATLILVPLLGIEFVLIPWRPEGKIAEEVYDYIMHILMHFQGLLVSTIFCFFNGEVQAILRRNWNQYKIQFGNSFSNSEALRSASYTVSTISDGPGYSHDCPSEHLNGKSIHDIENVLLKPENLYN
T1 sequence (O60896 24-148): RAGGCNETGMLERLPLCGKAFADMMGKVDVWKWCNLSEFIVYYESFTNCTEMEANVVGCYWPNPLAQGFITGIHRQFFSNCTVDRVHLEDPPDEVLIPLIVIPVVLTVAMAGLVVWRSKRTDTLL
Kind of experiment: AM2 receptor inhibition, LANCE cAMP agonist-antagonist competition assay. The class given is cell-based. Particulars: inhibition of AM induced cAMP activation, read-out: AM2 D2 protocol: pIC50 (converted). How it is done:
Compounds were assessed for their ability to inhibit ligand-induced elevations of cAMP, using the Perkin Elmer LANCE cAMP assay using commercially-available cells expressing a specific receptor of interest using the following general procedure:
Compounds were prepared in dimethyl sulfoxide (DMSO—99.9% pure) (Sigma Aldrich, Cat #: D4540) added to powder stocks to produce a 20 mM solution (100% DMSO) that was sonicated at 37° C. for 10 minutes to fully dissolve the compounds. The 20 mM stocks were diluted further in DMSO to produce a 2 mM solution that was sonicated at 37° C. for 10 minutes. 2 mM stocks were dissolved in assay/stimulation buffer to produce a 400 μM solution that was sonicated at 37° C. for 10 minutes for all cAMP assays. All stocks were stored at −20° C. Then serial dilution (Dilution factor: 10) was performed to achieve the desire experimental concentrations.
Competition assays were performed according to the manufactures instructions using LANCE® TR-FRET cAMP assay kit (Perkin Elmer, Cat #: AD0264). Serial dilutions (3 μl/well) of the molecules were plated in a 384-well OptiPlate (Perkin Elmer, Cat #: 6007299) in duplicates. Appropriate controls (100% stimulation: Forskolin and 0% stimulation: Vehicle control) (6 μl/well) were included in each plate for data normalization. Following the compound addition, 6 μl of G-protein coupled receptor overexpressing cells/Alexa Fluor antibody solution (1:100 dilution) was added in each well at a desired density of 2500cells/well. The overexpressing cell lines were purchased from DiscoveRx, Birmingham, UK. After spinning the plate at 1000 rpm for 1 minute and vortexing briefly, the cells were pre-incubated with the compounds for 30 minutes at room temperature (covered). Then 3 μl of the equivalent peptide ligand (EC50 dose) was added to all the wells except vehicle and forskolin controls. The plate were then spun down at 1000 rpm for 1 minute and once finished they were vortexed briefly and covered. Cells were stimulated in the presence of the ligands for 15 minutes at room temperature. After stimulation 12 μl of detection mix (Europium-Chelate streptavidin/biotinylated cAMP tracer solution) was added to all wells and incubated for 60 minutes at room temperature. The plate was then read on the Enspire multimode Plate reader (Perkin Elmer), at; 320/340 nm excitation and 615/665 nm emission was recorded.
Assay/Stimulation Buffer (30 mL)—pH 7.4 • 28 mL Hank's Balanced salt solution (+MgCl2, +CaCl2)—(Thermo Fisher Cat #:14170112) • 150 μl HEPES (1M)—(Thermo Fisher Cat #:15630080) • 400 μl Stabilizer (DTPA) Purified BSA (7.5%)—(Perkin Elmer, Cat #: CR84-100)
The ability of a compound to inhibit the AM induced cAMP activation in AM2 receptor-expressing cells (1321N1 cells transfected with CALCRL+RAMP3, sourced from DiscoverX catalogue number 95-0169C6) was assessed using the protocol above.
(In general: In TR-FRET formats the signal depends on donor and acceptor labels being close together.)
Turning to `CNCc1ccccc1CN(CC(=O)Nc1ccc2c(c1)CC1(C2)C(=O)Nc2ncccc21)C(=O)C1(C)CCN(C(C)=O)CC1` (centres unmarked) [Example 1, 1-Acetyl-4-methyl-N-(2-((methylamino)methyl)benzyl)-N-(2-oxo-2-((2′-oxo-1,1′,2′,3-tetrahydrospiro[indene-2,3′-pyrrolo[2,3-b]pyridin]-5-yl)amino)ethyl)piperidine-4-carboxamide 2,2,2-trifluoroacetate], the IC50 is 2.57 nM.
On to `CNCc1ccccc1CN(CC(=O)Nc1ccc2c(c1)CC1(C2)C(=O)Nc2ncccc21)C(=O)C1(C)CCNCC1` (centres unmarked) [Example 2, 4-Methyl-N-(2-((methylamino)methyl)benzyl)-N-(2-oxo-2-((2′-oxo-1,1′,2′,3-tetrahydrospiro[indene-2,3′-pyrrolo[2,3-b]pyridin]-5-yl)amino)ethyl)piperidine-4-carboxamide bis(2,2,2-trifluoroacetate)], for which the IC50 is 3.39 nM.
To `CNCc1ccccc1CN(CC(=O)Nc1ccc2c(c1)C[C@@]1(C2)C(=O)Nc2ncccc21)C(=O)C1(C)CCNCC1` [Example 3, (R)-4-Methyl-N-(2-((methylamino)methyl)benzyl)-N-(2-oxo-2-((2′-oxo-1,1′,2′,3-tetrahydrospiro[indene-2,3′-pyrrolo[2,3-b]pyridin]-5-yl)amino)ethyl)piperidine-4-carboxamide] belongs 7.76 nM; to `CNCc1ccccc1CN(CC(=O)Nc1ccc2c(c1)CC1(C2)C(=O)Nc2ncccc21)C(=O)C1(C)CCN(C(=O)c2ccccc2)CC1` (centres unmarked) [Example 4, 1-Benzoyl-4-methyl-N-(2-((methylamino)methyl)benzyl)-N-(2-oxo-2-((2′-oxo-1,1′,2′,3-tetrahydrospiro[indene-2,3′-pyrrolo[2,3-b]pyridin]-5-yl)amino)ethyl)piperidine-4-carboxamide], 2.19 nM.
With `CNCc1ccccc1CN(CC(=O)Nc1ccc2c(c1)CC1(C2)C(=O)Nc2ncccc21)C(=O)C1(C)CCN(C(=O)C2CCC2)CC1` (centres unmarked) [Example 5, 1-(Cyclobutanecarbonyl)-4-methyl-N-(2-((methylamino)methyl)benzyl)-N-(2-oxo-2-((2′-oxo-1,1′,2′,3-tetrahydrospiro[indene-2,3′-pyrrolo[2,3-b]pyridin]-5-yl)amino)ethyl)piperidine-4-carboxamide], the IC50 was 1.48 nM.
Consider `CNCc1ccccc1CN(CC(=O)Nc1ccc2c(c1)CC1(C2)C(=O)Nc2ncccc21)C(=O)C1(C)CCN(C(=O)c2ccncc2)CC1` (centres unmarked) [Example 6, 1-Isonicotinoyl-4-methyl-N-(2-((methylamino)methyl)benzyl)-N-(2-oxo-2-((2′-oxo-1,1′,2′,3-tetrahydrospiro[indene-2,3′-pyrrolo[2,3-b]pyridin]-5-yl)amino)ethyl)piperidine-4-carboxamide], for which the IC50 was 2.29 nM.
As to `CNCc1ccccc1CN(CC(=O)Nc1ccc2c(c1)C[C@@]1(C2)C(=O)Nc2ncccc21)C(=O)C1(C)CCN(C(=O)CC2CCNCC2)CC1` [Example 7, (R)-4-Methyl-N-(2-((methylamino)methyl)benzyl)-N-(2-oxo-2-((2′-oxo-1,1′,2′,3-tetrahydrospiro[indene-2,3′-pyrrolo[2,3-b]pyridin]-5-yl)amino)ethyl)-1-(2-(piperidin-4-yl)acetyl)piperidine-4-carboxamide], the IC50 was 4.07 nM.
With `CNCc1ccccc1CN(CC(=O)Nc1ccc2c(c1)C[C@@]1(C2)C(=O)Nc2ncccc21)C(=O)C1(C)CCN(C(=O)C[C@@H]2CCNC2)CC1` [Example 8, 4-Methyl-N-(2-((methylamino)methyl)benzyl)-N-(2-oxo-2-(((R)-2′-oxo-1,1′,2′,3-tetrahydrospiro[indene-2,3′-pyrrolo[2,3-b]pyridin]-5-yl)amino)ethyl)-1-(2-((S)-pyrrolidin-3-yl)acetyl)piperidine-4-carboxamide], the IC50 is 18.2 nM.
Regarding `CNCc1ccccc1CN(CC(=O)Nc1ccc2c(c1)C[C@@]1(C2)C(=O)Nc2ncccc21)C(=O)C1(C)CCN(C(=O)C2CCNCC2)CC1` [Example 9, (R)-4-Methyl-N-(2-((methylamino)methyl)benzyl)-N-(2-oxo-2-((2′-oxo-1,1′,2′,3-tetrahydrospiro[indene-2,3′-pyrrolo[2,3-b]pyridin]-5-yl)amino)ethyl)-1-(piperidine-4-carbonyl)piperidine-4-carboxamide], the IC50 was 5.13 nM.
`CNCc1ccccc1CN(CC(=O)Nc1ccc2c(c1)C[C@@]1(C2)C(=O)Nc2ncccc21)C(=O)C1(C)CCN(C(=O)c2cccc(N)n2)CC1` [Example 10, (R)-1-(6-Aminopicolinoyl)-4-methyl-N-(2-((methylamino)methyl)benzyl)-N-(2-oxo-2-((2′-oxo-1,1′,2′,3-tetrahydrospiro[indene-2,3′-pyrrolo[2,3-b]pyridin]-5-yl)amino)ethyl)piperidine-4-carboxamide]: the IC50 was 8.91 nM.
On to `CNCc1ccccc1CN(CC(=O)Nc1ccc2c(c1)C[C@@]1(C2)C(=O)Nc2ncccc21)C(=O)C1(C)CCN(C(=O)C[C@H]2CCNC2)CC1` [Example 11, 4-Methyl-N-(2-((methylamino)methyl)benzyl)-N-(2-oxo-2-(((R)-2′-oxo-1,1′,2′,3-tetrahydrospiro[indene-2,3′-pyrrolo[2,3-b]pyridin]-5-yl)amino)ethyl)-1-(2-((R)-pyrrolidin-3-yl)acetyl)piperidine-4-carboxamide], for which the IC50 is 6.46 nM.
To `CNCc1ccccc1CN(CC(=O)Nc1ccc2c(c1)C[C@@]1(C2)C(=O)Nc2ncccc21)C(=O)C1(C)CCN(C(=O)C2CCN(C(C)=O)CC2)CC1` [Example 12, (R)-1-(1-Acetylpiperidine-4-carbonyl)-4-methyl-N-(2-((methylamino)methyl)benzyl)-N-(2-oxo-2-((2′-oxo-1,1′,2′,3-tetrahydrospiro[indene-2,3′-pyrrolo[2,3-b]pyridin]-5-yl)amino)ethyl)piperidine-4-carboxamide] belongs 9.12 nM; to `CNCc1ccccc1CN(CC(=O)Nc1ccc2c(c1)C[C@@]1(C2)C(=O)Nc2ncccc21)C(=O)C1(C)CCN(C(=O)Cc2ccncc2)CC1` [Example 13, (R)-4-Methyl-N-(2-((methylamino)methyl)benzyl)-N-(2-oxo-2-((2′-oxo-1,1′,2′,3-tetrahydrospiro[indene-2,3′-pyrrolo[2,3-b]pyridin]-5-yl)amino)ethyl)-1-(2-(pyridin-4-yl)acetyl)piperidine-4-carboxamide], 15.5 nM.
With `CNCc1ccccc1CN(CC(=O)Nc1ccc2c(c1)CC1(C2)C(=O)Nc2ncccc21)C(=O)C1(C)CCN(C(=O)c2cccnc2)CC1` (centres unmarked) [Example 14, 4-Methyl-N-(2-((methylamino)methyl)benzyl)-1-nicotinoyl-N-(2-oxo-2-((2′-oxo-1,1′,2′,3-tetrahydrospiro[indene-2,3′-pyrrolo[2,3-b]pyridin]-5-yl)amino)ethyl)piperidine-4-carboxamide], the IC50 is 2 nM.
Take `CNCc1ccccc1CN(CC(=O)Nc1ccc2c(c1)CC1(C2)C(=O)Nc2ncccc21)C(=O)C1(C)CCN(C(=O)c2ccccn2)CC1` (centres unmarked) [Example 15, 4-Methyl-N-(2-((methylamino)methyl)benzyl)-N-(2-oxo-2-((2′-oxo-1,1′,2′,3-tetrahydrospiro[indene-2,3′-pyrrolo[2,3-b]pyridin]-5-yl)amino)ethyl)-1-picolinoylpiperidine-4-carboxamide]: the IC50 was 0.759 nM.
`CNCc1ccccc1CN(CC(=O)Nc1ccc2c(c1)C[C@@]1(C2)C(=O)Nc2ncccc21)C(=O)C1(C)CCN(C(=O)C(C)C)CC1` [Example 16, (R)-1-Isobutyryl-4-methyl-N-(2-((methylamino)methyl)benzyl)-N-(2-oxo-2-((2′-oxo-1,1′,2′,3-tetrahydrospiro[indene-2,3′-pyrrolo[2,3-b]pyridin]-5-yl)amino)ethyl)piperidine-4-carboxamide]: the IC50 was 3.24 nM.
To `CNCc1ccccc1CN(CC(=O)Nc1ccc2c(c1)C[C@@]1(C2)C(=O)Nc2ncccc21)C(=O)C1(C)CCN(C(=O)C(F)F)CC1` [Example 17, (R)-1-(2,2-Difluoroacetyl)-4-methyl-N-(2-((methylamino)methyl)benzyl)-N-(2-oxo-2-((2′-oxo-1,1′,2′,3-tetrahydrospiro[indene-2,3′-pyrrolo[2,3-b]pyridin]-5-yl)amino)ethyl)piperidine-4-carboxamide] belongs 8.32 nM.

The record behind these values is patent publication US20230036854A1, “HETEROCYCLIC SPIRO-COMPOUNDS AS AM2 RECEPTOR INHIBITORS” (THE UNIVERSITY OF SHEFFIELD, priority 2018, published 2023).
